Columns and labels:
Type in all cases: cell-based
EGFR WT (Ba/F3 cells) = biological target: T1, EGFR WT (Ba/F3 cells) (Homo sapiens, UniProt P00533); assay: Inhibitor activity on EGFR-dependent cell growth (CellTiter-Glo, 72 h), Ba/F3 EGFR WT; settings: read-out: BaF3 WT IC50
T1 construct: expressed in transfected cells; host or cells: Ba/F3 (murine pro-B cells), retroviral transduction, puromycin selection, maintained with EGF
How it was run: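 This growth assay used Ba/F3 cells that depend on wild-type EGFR and are kept in EGF without IL3. Compounds were made up as 10 mM DMSO stocks and diluted 3-fold over 10 points. 120 nL went onto 600 cells/well. After 72 hours, 40 μL CellTiter-Glo was added and luminescence read on EnVision after 30 min.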

[1] = biological target: T2, EGFR exon 20 ASV Ins V769_D770 (Ba/F3 cells) (Homo sapiens, UniProt P00533, INS769ASV); assay: Inhibitor activity on EGFR-dependent cell growth (CellTiter-Glo, 72 h), Ba/F3 EGFR exon 20 ASV Ins; settings: read-out: BaF3 ASV IC50
T2 construct: expressed in transfected cells; host or cells: Ba/F3 (murine pro-B cells), retroviral transduction, puromycin selection, IL3-independent pool
T2 sequence (P00533 with tags, fused parts or gaps INS769ASV): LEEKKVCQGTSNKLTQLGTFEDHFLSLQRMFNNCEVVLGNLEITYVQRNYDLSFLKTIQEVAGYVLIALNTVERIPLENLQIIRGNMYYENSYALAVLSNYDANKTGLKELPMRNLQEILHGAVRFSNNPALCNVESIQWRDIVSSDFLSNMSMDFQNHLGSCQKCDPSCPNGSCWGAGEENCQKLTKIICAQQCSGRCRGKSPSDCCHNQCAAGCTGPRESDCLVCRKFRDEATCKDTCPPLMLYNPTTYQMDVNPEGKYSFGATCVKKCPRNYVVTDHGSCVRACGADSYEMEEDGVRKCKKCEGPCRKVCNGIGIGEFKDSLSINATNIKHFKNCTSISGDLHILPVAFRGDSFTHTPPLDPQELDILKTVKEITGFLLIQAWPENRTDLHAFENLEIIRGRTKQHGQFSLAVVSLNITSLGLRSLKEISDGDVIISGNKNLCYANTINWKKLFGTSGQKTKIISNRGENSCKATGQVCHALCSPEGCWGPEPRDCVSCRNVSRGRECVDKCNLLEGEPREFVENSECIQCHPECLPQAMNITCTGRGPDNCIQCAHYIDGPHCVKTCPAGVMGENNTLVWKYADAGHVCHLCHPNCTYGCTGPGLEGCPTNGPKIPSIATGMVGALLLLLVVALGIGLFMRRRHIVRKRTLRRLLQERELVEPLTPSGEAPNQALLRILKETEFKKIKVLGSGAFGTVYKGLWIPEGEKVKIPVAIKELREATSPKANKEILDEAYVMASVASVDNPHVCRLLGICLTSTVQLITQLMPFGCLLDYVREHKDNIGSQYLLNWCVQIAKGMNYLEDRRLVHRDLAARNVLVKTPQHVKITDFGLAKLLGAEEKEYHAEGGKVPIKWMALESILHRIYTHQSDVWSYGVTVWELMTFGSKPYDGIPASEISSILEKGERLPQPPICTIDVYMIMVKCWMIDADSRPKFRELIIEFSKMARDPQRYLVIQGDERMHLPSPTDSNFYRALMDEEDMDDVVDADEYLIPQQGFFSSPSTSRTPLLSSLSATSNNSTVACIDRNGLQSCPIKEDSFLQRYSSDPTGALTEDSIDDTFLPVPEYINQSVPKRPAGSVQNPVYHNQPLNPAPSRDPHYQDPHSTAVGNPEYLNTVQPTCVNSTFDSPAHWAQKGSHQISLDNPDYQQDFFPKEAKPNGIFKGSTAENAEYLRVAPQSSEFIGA
How it was run: (§1)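 IC50s derive from a sigmoidal dose–response fit of CellTiter-Glo signal. The signal was normalised between […]-treated cells and cell-free medium. Ba/F3 mutant-EGFR cells, seeded at 400–800/well depending on the line, had 72 h of exposure to a 10-point, 3-fold compound series.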

[2] = biological target: T3, EGFR exon 20 SVD Ins D770_N771 (Ba/F3 cells) (Homo sapiens, UniProt P00533, INS770SVD); assay: Inhibitor activity on EGFR-dependent cell growth (CellTiter-Glo, 72 h), Ba/F3 EGFR exon 20 SVD Ins; settings: read-out: BaF3 SVD IC50
T3 construct: expressed in transfected cells; host or cells: Ba/F3 (murine pro-B cells), retroviral transduction, puromycin selection, IL3-independent pool
T3 sequence (P00533 with tags, fused parts or gaps INS770SVD): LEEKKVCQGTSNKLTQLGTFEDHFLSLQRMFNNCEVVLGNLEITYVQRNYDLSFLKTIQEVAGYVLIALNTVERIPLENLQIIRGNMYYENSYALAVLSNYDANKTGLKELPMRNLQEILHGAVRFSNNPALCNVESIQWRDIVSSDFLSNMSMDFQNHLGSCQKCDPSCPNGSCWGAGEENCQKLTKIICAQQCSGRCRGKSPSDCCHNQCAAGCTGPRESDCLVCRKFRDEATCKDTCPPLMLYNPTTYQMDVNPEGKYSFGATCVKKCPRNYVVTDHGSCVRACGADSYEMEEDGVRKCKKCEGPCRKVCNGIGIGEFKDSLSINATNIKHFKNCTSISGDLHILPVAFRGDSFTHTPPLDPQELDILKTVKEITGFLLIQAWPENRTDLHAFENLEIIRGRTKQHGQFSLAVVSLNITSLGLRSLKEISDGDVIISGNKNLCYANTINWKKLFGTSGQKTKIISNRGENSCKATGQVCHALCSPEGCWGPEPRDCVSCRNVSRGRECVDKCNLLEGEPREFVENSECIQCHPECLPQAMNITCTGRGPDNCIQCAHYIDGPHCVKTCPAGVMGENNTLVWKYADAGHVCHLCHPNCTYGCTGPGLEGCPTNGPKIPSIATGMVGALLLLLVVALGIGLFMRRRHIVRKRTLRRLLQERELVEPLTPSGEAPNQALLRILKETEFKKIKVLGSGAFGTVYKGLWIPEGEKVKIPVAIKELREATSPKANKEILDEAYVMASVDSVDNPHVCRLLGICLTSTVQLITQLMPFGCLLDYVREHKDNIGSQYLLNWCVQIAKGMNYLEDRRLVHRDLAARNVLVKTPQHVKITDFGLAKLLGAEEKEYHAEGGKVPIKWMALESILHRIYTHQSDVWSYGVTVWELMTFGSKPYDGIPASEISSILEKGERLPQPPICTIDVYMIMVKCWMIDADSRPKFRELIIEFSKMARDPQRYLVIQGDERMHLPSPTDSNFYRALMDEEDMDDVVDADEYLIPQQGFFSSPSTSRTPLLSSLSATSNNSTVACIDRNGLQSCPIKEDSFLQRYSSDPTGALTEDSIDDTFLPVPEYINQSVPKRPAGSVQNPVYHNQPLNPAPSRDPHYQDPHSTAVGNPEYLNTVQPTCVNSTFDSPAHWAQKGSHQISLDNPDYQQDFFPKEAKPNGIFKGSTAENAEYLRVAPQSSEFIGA
How it was run: as §1

[3] = biological target: T4, EGFR exon 20 FQEA Ins A763_V764 (Ba/F3 cells) (Homo sapiens, UniProt P00533, INS763FQEA); assay: Inhibitor activity on EGFR-dependent cell growth (CellTiter-Glo, 72 h), Ba/F3 EGFR exon 20 FQEA Ins; settings: read-out: BaF3 FQEA IC50
T4 construct: expressed in transfected cells; host or cells: Ba/F3 (murine pro-B cells), retroviral transduction, puromycin selection, IL3-independent pool
T4 sequence (P00533 with tags, fused parts or gaps INS763FQEA): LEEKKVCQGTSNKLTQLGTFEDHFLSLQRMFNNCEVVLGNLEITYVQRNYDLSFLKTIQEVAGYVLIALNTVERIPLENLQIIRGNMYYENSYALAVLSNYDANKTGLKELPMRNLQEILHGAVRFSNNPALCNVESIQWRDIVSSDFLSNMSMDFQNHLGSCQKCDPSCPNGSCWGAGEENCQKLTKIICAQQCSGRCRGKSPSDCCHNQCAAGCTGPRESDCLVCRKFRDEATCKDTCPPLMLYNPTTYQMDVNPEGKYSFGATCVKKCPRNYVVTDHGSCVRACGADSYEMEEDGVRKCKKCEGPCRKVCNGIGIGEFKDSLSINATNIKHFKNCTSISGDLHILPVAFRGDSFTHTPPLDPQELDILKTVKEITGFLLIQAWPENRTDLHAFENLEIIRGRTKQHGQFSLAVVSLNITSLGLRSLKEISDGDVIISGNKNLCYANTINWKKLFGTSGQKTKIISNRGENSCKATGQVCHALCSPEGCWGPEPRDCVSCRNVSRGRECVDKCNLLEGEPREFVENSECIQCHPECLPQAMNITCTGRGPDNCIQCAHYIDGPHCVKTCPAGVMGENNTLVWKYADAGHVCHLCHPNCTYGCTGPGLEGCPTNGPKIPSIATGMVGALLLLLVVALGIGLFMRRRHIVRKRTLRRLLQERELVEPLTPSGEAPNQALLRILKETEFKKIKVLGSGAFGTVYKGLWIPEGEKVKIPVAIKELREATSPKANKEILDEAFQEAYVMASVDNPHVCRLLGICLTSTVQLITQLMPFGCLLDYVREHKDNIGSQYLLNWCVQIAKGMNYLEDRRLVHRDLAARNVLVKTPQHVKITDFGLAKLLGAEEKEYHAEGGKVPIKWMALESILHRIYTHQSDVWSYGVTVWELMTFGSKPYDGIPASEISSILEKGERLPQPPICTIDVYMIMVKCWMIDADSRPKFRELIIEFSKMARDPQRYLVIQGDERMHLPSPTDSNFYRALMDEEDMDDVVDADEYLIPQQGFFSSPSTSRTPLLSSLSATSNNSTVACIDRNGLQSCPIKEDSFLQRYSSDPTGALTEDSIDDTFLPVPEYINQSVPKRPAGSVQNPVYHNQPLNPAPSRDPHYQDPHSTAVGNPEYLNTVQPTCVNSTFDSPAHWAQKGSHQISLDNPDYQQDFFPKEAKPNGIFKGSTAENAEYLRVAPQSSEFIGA
How it was run: as §1

[4] = biological target: T2, EGFR exon 20 ASV Ins V769_D770 (Ba/F3 cells); assay: Inhibitor activity on EGFR phosphorylation (pEGFR AlphaLISA, 2 h), Ba/F3 EGFR exon 20 ASV Ins; settings: EGFR phosphorylation, AlphaLISA, 2 hours; read-out: ASV IC50 (pEGFR)
From the text: Example B. Inhibitor Activity on EGFR phosphorylation (pEGFR)
EGFR mutant Ba/F3 cells were generated by transduction with retrovirus containing vectors expressing EGFR L858R, EGFR exon 19del, EGFR L858R/C797S, EGFR exon 20 NPG Ins D770_N771, EGFR exon 20 ASV Ins V769_D770, or EGFR exon 20 SVD Ins D770_N771 genes along with a puromycin selection marker. Transduced cells are selected with puromycin for 7 days and are then be transferred into culture media without Interleukin 3 (IL3). Surviving cells are confirmed to express EGFR by Western blot and maintained as a pool. CUTO14 cells were obtained from Dr. Robert C. Doebele at the University of Colorado. The IC50 date are included in Table 6 and Table 7.
1.1 Cells are harvested from flask into cell culture medium and the cell number counted.
1.2 Cells are diluted with culture medium to the desired density and 40 μL of cell suspension is added into each well of 384-well cell culture plate and the seeding density is 50K cells/well (Ba/F3) or 12.5K cells/well (CUTO14).
2 Compound Preparation and Treatment
2.1 Test compounds are dissolved to 10 mM in a DMSO stock solution. 45 μL of stock solution is transferred to a 384 polypropylene plate (pp-plate). Perform 3-fold, 10-point dilution via transferring 15 μL compound into 30 μL DMSO using a TECAN (EVO200) liquid handler.
2.2 Spin plates at room temperature at 1,000 RPM for 1 minute.
2.3 Transfer 5 nL of diluted compound from compound source plate into the cell plate.
2.4 After compound treatment for 2 hours, perform pEGFR detection by AlphaLISA for compound treatment plates as described in “Detection” section.
3 Detection by pEGFR AlphaLISA (Perkin-Elmer)
3.1 Plates are removed from incubators and equilibrated at room temperature for 10 minutes, and media was removed
3.2 10 μL of lysis buffer is added and plates shaken at 600 rpm for 1 hr.
3.3 Prepare acceptor mix just before use and dispense 5 μL of acceptor mix to all the wells. Shake 350 rpm for Ihr in the dark
3.4 Prepare donor mix under low light conditions prior to use. Dispense 5 μL of donor mix to all the wells. Mix well on the shaker, seal and wrap in aluminum foil and incubate 1.5 hrs at room temperature in the dark
3.5 Transfer 18.5 μL mixture to OptiPlate 384, and read using an Envision. The IC50 date were included in Table 6 and Table 7.

T1 sequence (P00533 25-1210): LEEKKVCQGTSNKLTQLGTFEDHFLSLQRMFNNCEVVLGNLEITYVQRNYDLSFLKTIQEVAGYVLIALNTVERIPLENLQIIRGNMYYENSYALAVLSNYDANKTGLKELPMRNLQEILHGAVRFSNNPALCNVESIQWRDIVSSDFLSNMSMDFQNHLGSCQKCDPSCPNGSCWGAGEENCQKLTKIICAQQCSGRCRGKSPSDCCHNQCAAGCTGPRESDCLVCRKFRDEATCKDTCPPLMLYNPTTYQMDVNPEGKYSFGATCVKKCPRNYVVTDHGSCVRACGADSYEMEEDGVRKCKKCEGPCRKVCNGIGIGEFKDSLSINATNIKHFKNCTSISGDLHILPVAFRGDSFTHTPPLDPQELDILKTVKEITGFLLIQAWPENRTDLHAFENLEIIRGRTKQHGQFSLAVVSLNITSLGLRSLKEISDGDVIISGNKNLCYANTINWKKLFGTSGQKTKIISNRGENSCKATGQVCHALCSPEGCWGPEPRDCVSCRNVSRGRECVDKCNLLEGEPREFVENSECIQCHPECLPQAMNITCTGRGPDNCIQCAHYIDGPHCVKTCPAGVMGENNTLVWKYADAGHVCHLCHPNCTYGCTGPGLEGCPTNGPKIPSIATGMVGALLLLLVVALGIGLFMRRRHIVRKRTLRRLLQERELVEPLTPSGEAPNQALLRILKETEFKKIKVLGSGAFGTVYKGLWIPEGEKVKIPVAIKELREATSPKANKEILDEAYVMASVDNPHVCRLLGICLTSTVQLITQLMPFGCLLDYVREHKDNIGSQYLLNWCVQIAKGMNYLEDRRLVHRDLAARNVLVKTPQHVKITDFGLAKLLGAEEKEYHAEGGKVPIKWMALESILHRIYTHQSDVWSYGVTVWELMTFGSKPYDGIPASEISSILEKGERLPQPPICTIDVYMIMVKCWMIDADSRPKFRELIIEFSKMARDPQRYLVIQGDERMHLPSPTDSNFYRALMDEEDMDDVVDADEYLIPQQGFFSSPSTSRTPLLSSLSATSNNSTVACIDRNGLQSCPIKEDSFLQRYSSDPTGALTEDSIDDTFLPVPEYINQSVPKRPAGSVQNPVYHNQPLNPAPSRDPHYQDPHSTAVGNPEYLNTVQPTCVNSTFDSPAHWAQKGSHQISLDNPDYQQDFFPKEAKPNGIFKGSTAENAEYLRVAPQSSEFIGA

| Compound | IC50 (EGFR WT (Ba/F3 cells)) [nM] | IC50 [1] [nM] | IC50 [2] [nM] | IC50 [3] [nM] | IC50 [4] [nM] |
| --- | --- | --- | --- | --- | --- |
| CCOc1c(F)cccc1Nc1c(-c2ccnc(N)n2)[nH]c2c1C(=O)NCC2 [Compound 699, 2-(2-aminopyrimidin-4-yl)-3-[(2-ethoxy-3-fluorophenyl)amino]-1H,5H,6H,7H-pyrrolo[3,2-c]pyridin-4-one; trifluoroacetic acid] | > 1000 | > 1000 | > 1000 | > 1000 | 100 to 1000 |
| C#Cc1cccc(Nc2c(-c3ccnc(N)n3)[nH]c3c2C(=O)NCC3)c1OC [Compound 703, 2-(2-aminopyrimidin-4-yl)-3-[(3-ethynyl-2-methoxyphenyl)amino]-1H,5H,6H,7H-pyrrolo[3,2-c]pyridin-4-one] | > 1000 | > 1000 | > 1000 | > 1000 | 100 to 1000 |
| CC#Cc1cccc(Nc2c(-c3ccnc(N)n3)[nH]c3c2C(=O)NCC3)c1OC [Compound 704, 2-(2-aminopyrimidin-4-yl)-3-[[2-methoxy-3-(prop-1-yn-1-yl)phenyl]amino]-1H,5H,6H,7H-pyrrolo[3,2-c]pyridin-4-one] | > 1000 | > 1000 | > 1000 | > 1000 | > 1000 |
| COc1cccc(Nc2c(-c3ccnc(N)n3)[nH]c3c2C(=O)NCC3)c1C [Compound 705, 2-(2-aminopyrimidin-4-yl)-3-[(3-methoxy-2-methylphenyl)amino]-1H,5H,6H,7H-pyrrolo[3,2-c]pyridin-4-one] | > 1000 | > 1000 | > 1000 | > 1000 | > 1000 |
| COc1c(Cl)cccc1Nc1c(-c2ccnc(NC3CC(F)(F)C3)n2)[nH]c2c1C(=O)NCC2 [Compound 712, 3-[(3-chloro-2-methoxyphenyl)amino]-2-[2-[(3,3-difluorocyclobutyl)amino]pyrimidin-4-yl]-1H,5H,6H,7H-pyrrolo[3,2-c] pyridin-4-one] | > 1000 | > 1000 | > 1000 | > 1000 | 100 to 1000 |
| CSc1c(Cl)cccc1Nc1c(-c2ccnc(N)n2)[nH]c2c1C(=O)NCC2 [Compound 715, 2-(2-aminopyrimidin-4-yl)-3-[[3-chloro-2-(methylsulfanyl)phenyl]amino]-1H,5H,6H,7H-pyrrolo[3,2-c]pyridin-4-one] | > 1000 | 100 to 1000 | 100 to 1000 | 100 to 1000 | < 100 |
| Cc1ccc(F)cc1Nc1c(-c2ccnc(N)n2)[nH]c2c1C(=O)NCC2 [compound 196] | > 1000 | > 1000 | > 1000 | 100 to 1000 | 100 to 1000 |
| Cc1cc(F)ccc1Nc1c(-c2ccnc(N)n2)[nH]c2c1C(=O)NCC2 [compound 197] | > 1000 | > 1000 | > 1000 | > 1000 | > 1000 |
| Cc1cccc(F)c1Nc1c(-c2ccnc(N)n2)[nH]c2c1C(=O)NCC2 [compound 198] | > 1000 | > 1000 | > 1000 | > 1000 | > 1000 |
| N#Cc1c(F)cccc1Nc1c(-c2ccnc(N)n2)[nH]c2c1C(=O)NCC2 [compound 200] | > 1000 | > 1000 | > 1000 | > 1000 | 100 to 1000 |
| Cc1c(C#N)cccc1Nc1c(-c2ccnc(N)n2)[nH]c2c1C(=O)NCC2 [compound 201] | > 1000 | > 1000 | > 1000 | > 1000 | > 1000 |
| Nc1nccc(-c2[nH]c3c(c2Nc2ccc(F)c(F)c2)C(=O)NCC3)n1 [compound 203] | > 1000 | > 1000 | > 1000 | 100 to 1000 | > 1000 |
| Nc1nccc(-c2[nH]c3c(c2Nc2cc(F)cc(F)c2)C(=O)NCC3)n1 [compound 204] | 100 to 1000 | 100 to 1000 | 100 to 1000 | 100 to 1000 | 100 to 1000 |
| COc1c(Cl)cccc1Nc1c(-c2ccnc(NCc3ccccc3)n2)[nH]c2c1C(=O)NCC2 [compound 209] | > 1000 | 100 to 1000 | 100 to 1000 | > 1000 | 100 to 1000 |
| COc1c(F)cccc1Nc1c(-c2ccnc(N)c2)[nH]c2c1C(=O)NCC2 [compound 242] | > 1000 | > 1000 | > 1000 | > 1000 | 100 to 1000 |
| COc1c(F)cccc1Nc1c(-c2ccncn2)[nH]c2c1C(=O)NCC2 [compound 244] | > 1000 | > 1000 | > 1000 | > 1000 | 100 to 1000 |
| COc1c(F)cccc1Nc1c(-c2nnc3cc(C)ccn23)[nH]c2c1C(=O)NCC2 [compound 246] | > 1000 | > 1000 | > 1000 | > 1000 | > 1000 |
| COc1c(F)cccc1Nc1c(-c2ccnc(C)c2)[nH]c2c1C(=O)NCC2 [compound 261] | > 1000 | > 1000 | > 1000 | > 1000 | 100 to 1000 |
| CNc1cc(-c2[nH]c3c(c2Nc2cccc(Cl)c2OC)C(=O)NCC3)ncn1 [compound 284] | > 1000 | > 1000 | > 1000 | > 1000 | > 1000 |
| COc1c(Cl)cccc1Nc1c(-c2ccnc(NCC(C)(C)O)n2)[nH]c2c1C(=O)NCC2 [compound 288] | > 1000 | > 1000 | > 1000 | > 1000 | > 1000 |
| COc1c(Cl)cccc1Nc1c(-c2ccnc3[nH]c(=O)oc23)[nH]c2c1C(=O)NCC2 [compound 293] | > 1000 | > 1000 | > 1000 | > 1000 | > 1000 |
| COc1cccc(Nc2c(-c3ccnc(N)n3)[nH]c3c2C(=O)NCC3)c1Cl [compound 301] | > 1000 | > 1000 | > 1000 | > 1000 | > 1000 |
| COc1cc(Cl)cc(Nc2c(-c3ccnc(N)n3)[nH]c3c2C(=O)NCC3)c1 [compound 302] | > 1000 | > 1000 | > 1000 | > 1000 | > 1000 |
| COc1c(Nc2c(-c3ccnc(N)n3)[nH]c3c2C(=O)NCC3)ccc(F)c1F [compound 303] | > 1000 | > 1000 | 100 to 1000 | > 1000 | 100 to 1000 |
| COc1c(F)cc(F)cc1Nc1c(-c2ccnc(N)n2)[nH]c2c1C(=O)NCC2 [compound 304] | > 1000 | 100 to 1000 | 100 to 1000 | 100 to 1000 | < 100 |
| Nc1nccc(-c2[nH]c3c(c2Nc2cccc4c2OCO4)C(=O)NCC3)n1 [compound 306] | > 1000 | > 1000 | > 1000 | 100 to 1000 | 100 to 1000 |
| Nc1nccc(-c2[nH]c3c(c2Nc2cccc4ccoc24)C(=O)NCC3)n1 [compound 307] | > 1000 | > 1000 | > 1000 | > 1000 | 100 to 1000 |

Reference: patent US20240101576A1, “HETEROCYCLIC INHIBITORS OF EGFR AND/OR HER2, FOR USE IN THE TREATMENT OF CANCER” (Scorpion Therapeutics, Inc., priority 2020, published 2024)
